Experimental data: patent US11819257B2, “Compositions, treatment systems and methods for improved cooling of lipid-rich tissue” (Zeltiq Aesthetics, Inc., priority 2014, dated 2023)

System: skin at abdominal treatment sites
Assay: Clinical detection of freeze events during abdominal CoolSculpting cooling treatment after pre-treatment with cryoprotectant and mechanical stimulation
Assay type: in vivo, human
Conditions: patients, 14 total cycles at −15° C. applicator set point, 60 minute cycle, 3 cc topical, brushed for 2 minutes before cooling
Description: This section describes an example of the clinical use of pre-treating the skin of a patient at a treatment site with mechanical stimulation in the presence of topically applied cryoprotectant prior to applying cooling treatment for affecting subcutaneous lipid-rich cells. Additional embodiments of the present technology may be practiced with features similar to or different than those described with respect to this example. Among other features of the present technology, this example illustrates that mechanical stimulation in the presence of cryoprotectant prior to cooling treatment may have utility in the prevention of freezing events or damage when cooling subcutaneous lipid-rich tissue for aesthetic or health-related reasons. Thirteen patients scheduled for abdominoplasty where offered to undergo a CoolSculpting® treatment on abdominal treatment sites. Each patient underwent two CoolSculpting® treatment sessions having a 60 minute cycle time and a −15° C. applicator temperature set point. The vacuum was set at 60 per typical recommended settings and a standard CoolSculpting® gel pad and liner were used per instructions. Six patients were assigned to a control group and had no pre-treatment performed prior to the CoolSculpting® treatment. […] Freeze events were detected using a freeze detection algorithm such as that described in U.S. Pat. No. 8,285,390.

Q: Which results are given for `CC(O)CO` (centres unmarked) [100% PG, propylene glycol]?
A: Probability of Freeze Event: 0%; Freeze Events (freeze detection algorithm): 0
